Several values for one entry are separate records, joined by “and”; a condition that tells them apart may be missing. Identical values can stand only once.
Tests used:
[1] = tested on: rat uterine decidualization; assay: Rat decidualization assay; assay type: in vivo; settings: for Estimated average EC50 for uterine wet weight: ovariectomized Sprague-Dawley rats, s.c., average of dose-response curves
Method: The animals were treated once daily for seven days. […] In all studies, a control group receiving vehicle was included. […] The contralateral horn was not scratched and served as an unstimulated control. Approximately 24 hoursfollowing the final treatment, rats were sacrificed by CO2 asphyxiation and body weight measured. Uteri were removed and trimmed of fat. Decidualized (D-horn) and control (C-horn) uterine horns were weighed separately.
Body weight: Mean total animal body weight (default-kg)
D-horn: Wet weight of decidualized uterine horn (default-kg)
C-horn: Wet weight of control uterine horn (default-kg)
Decidual response: [(D−C)/C]×100%

PR = target: T1, PR (Homo sapiens, UniProt P06401); assay: T47D cell alkaline phosphatase assay; assay type: cell-based; settings: for IC50: read-out: Alk. Phos. IC50
T1 construct: alkaline phosphatase activity in T47D cells; endogenous in cells; host or cells: T47D cells
T1 sequence (P06401 1-933): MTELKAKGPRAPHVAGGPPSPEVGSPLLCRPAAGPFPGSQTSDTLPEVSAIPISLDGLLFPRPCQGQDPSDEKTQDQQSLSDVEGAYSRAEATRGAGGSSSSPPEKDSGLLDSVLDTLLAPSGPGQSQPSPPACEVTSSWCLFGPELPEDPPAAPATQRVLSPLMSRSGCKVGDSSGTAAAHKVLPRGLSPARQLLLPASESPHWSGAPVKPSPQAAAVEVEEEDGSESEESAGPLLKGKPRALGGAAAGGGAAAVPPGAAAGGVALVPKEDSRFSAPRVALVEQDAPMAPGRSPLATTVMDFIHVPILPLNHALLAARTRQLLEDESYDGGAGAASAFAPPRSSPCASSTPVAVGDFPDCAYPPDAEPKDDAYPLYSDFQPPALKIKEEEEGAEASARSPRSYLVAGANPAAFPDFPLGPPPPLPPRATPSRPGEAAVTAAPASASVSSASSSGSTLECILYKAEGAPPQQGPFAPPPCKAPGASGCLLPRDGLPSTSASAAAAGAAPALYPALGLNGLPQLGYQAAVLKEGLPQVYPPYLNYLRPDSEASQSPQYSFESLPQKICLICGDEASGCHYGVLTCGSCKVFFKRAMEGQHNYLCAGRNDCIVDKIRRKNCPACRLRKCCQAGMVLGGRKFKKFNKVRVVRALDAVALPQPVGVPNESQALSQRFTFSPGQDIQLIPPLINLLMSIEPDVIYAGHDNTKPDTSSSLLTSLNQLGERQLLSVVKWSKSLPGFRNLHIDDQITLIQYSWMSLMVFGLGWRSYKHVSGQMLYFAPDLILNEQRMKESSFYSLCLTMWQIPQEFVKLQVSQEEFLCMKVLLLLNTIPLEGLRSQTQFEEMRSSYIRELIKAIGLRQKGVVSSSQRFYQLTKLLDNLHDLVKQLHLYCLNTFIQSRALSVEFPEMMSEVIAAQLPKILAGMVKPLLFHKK
Method: (a) Purpose: To identify progestins or antiprogestins by determining a compound's effect on alkaline phosphatase activity in T47D cells. […] Cell Culture and Treatment • Frozen T47D cells were thawed in a 37° C. water bath and diluted to 280,000 cells/ml in culture medium. To each well in a 96-well plate (Falcon, Becton Dickinson Labware), 180 ? L of diluted cell suspension was added. Twenty ? L of reference or test compounds diluted in the culture medium was then added to each well. […] The cells were incubated at 37° C. in a 5% CO2humidified atmosphere for 24 hours. • Note: For high throughput screening, one concentration of each compound was tested at 0.3 mg/ml. […] Alkaline Phosphatase Enzyme Assay • At the end of treatment, the medium was removed from the plate. Fifty ? L of assay buffer I was added to each well. The plates were shaken in a titer plate shaker for 15 minutes. Then 150 ? L of assay buffer II was added to each well. […] Square root-transformed data were used for analysis of variance and nonlinear dose response curve fitting for both agonist and antagonist modes. Huber weighting was used to downweight the effects of outliers. EC50 or IC50 values were calculated from the retransformed values. JMP software (SAS Institute, Inc.) was used for both one-way analysis of variance and non-linear dose response analyses in both single dose and dose response studies.

Row | SMILES | IC50 (PR) [nM] | also measured
1 | C#C[C@]1(O)CC[C@H]2[C@@H]3CCC4=CC(=O)CC[C@@H]4[C@H]3C(=C)C[C@@]21CC [3-Ketodesogestrel] | – | Estimated average EC50 for uterine wet weight [1]: 0.10 mg/kg, s.c.
2 | Cn1c(C#N)ccc1-c1ccc2c(c1)C(C)(C)CC2=O [Example 3, 5-(3,3-dimethyl-1-oxo-2,3-dihydro-1H-inden-5-yl)-1-methyl-1H-pyrrole-2-carbonitrile] | – | EC50 (PR; T47D cells, agonist mode, read-out: Alk. Phos. EC50): 10 nM
3 | Cc1ccc(-c2ccc3c(c2)C(C)(C)CC3=O)cc1 [Example 26, 3,3-dimethyl-5-(4-methylphenyl)indan-1-one] | 877 | –
4 | CC1(C)CC(=O)c2ccc(-c3ccccc3Cl)cc21 [Example 32, 5-(2-chlorophenyl)-3,3-dimethylindan-1-one] | 737 | –
5 | CC1(C)CC(=O)c2ccc(-c3cc(Cl)ccc3Cl)cc21 [Example 35, 5-(2,5-dichlorophenyl)-3,3-dimethylindan-1-one] | 632 | –
6 | CC1(C)CC(=O)c2ccc(-c3ccc(Cl)cc3Cl)cc21 [Example 36, 5-(2,4-dichlorophenyl)-3,3-dimethylindan-1-one] | 349 | –
7 | C#C[C@]1(O)CC[C@H]2[C@@H]3CCC4=CC(=O)CC[C@@H]4[C@H]3CC[C@@]21CC [Levonorgestrel] | – | Estimated average EC50 for uterine wet weight [1]: 0.10 mg/kg, s.c.
8 | CC#C[C@]1(O)CC[C@H]2[C@@H]3CCC4=CC(=O)CCC4=C3[C@@H](c3ccc(N(C)C)cc3)C[C@@]21C [RU486] | – | Estimated IC50 for uterine weight ([1]; ovariectomized rats, p.o., with EC50 dose of progesterone (5.6 mg/kg), individual studies): 0.21 mg/kg, p.o. and 0.14 mg/kg, p.o.

More lines, in order of falling IC50 (PR), values ahead:

Row | IC50 (PR) [nM] | SMILES | also measured
9 | 300 | CC1(C)CC(=O)c2ccc(-c3ccccc3)cc21 [Example 37, 3,3-dimethyl-5-phenylindan-1-one] | –
10 | 300 | Cn1c(C#N)ccc1-c1ccc(C(=O)c2ccccc2)cc1 [Example 11, 5-(4-benzoylphenyl)-1-methyl-1H-pyrrole-2-carbonitrile] | –
11 | 266 | Cn1c(C#N)ccc1-c1ccc(C(=O)c2cccs2)cc1 [Example 10, 1-methyl-5-[4-(thien-2-ylcarbonyl)phenyl]-1H-pyrrole-2-carbonitrile] | –
12 | 225 | Cc1cccc(-c2ccc3c(c2)C(C)(C)CC3=O)c1 [Example 29, 3,3-dimethyl-5-(3-methylphenyl)indan-1-one] | –
13 | 200 | CC1(C)CC(=O)c2ccc(-c3ccc(Cl)cc3)cc21 [Example 21, 5-(4-chlorophenyl)-3,3-dimethylindan-1-one] | –
14 | 115 | CCC(=O)c1ccc(-c2ccc(C#N)n2C)cc1 [Example 9, 1-methyl-5-(4-propionylphenyl)-1H-pyrrole-2-carbonitrile] | –
15 | 100 | CC1(C)CC(=O)c2ccc(-c3ccc(F)c(Cl)c3)cc21 [Example 38, 5-(3-chloro-4-fluorophenyl)-3,3-dimethylindan-1-one] | –
16 | 66.3 | CC1(C)CC(=O)c2ccc(-c3cccc(Cl)c3)cc21 [Example 28, 5-(3-chlorophenyl)-3,3-dimethylindan-1-one] | –
17 | 27.5 | Cn1c(C#N)ccc1-c1ccc2c(c1)CCCC2=O [Example 13, 1-methyl-5-(5-oxo-5,6,7,8-tetrahydronaphthalen-2-yl)-1H-pyrrole-2-carbonitrile] | –
